Data taken from EP2465840A1, “Terpene ether” (CABB GmbH, priority 2010, dated 2012).

Experiments:
[1] = Foam height and foam stability of formulation; assay type: physicochemical; conditions: for h1: Schaumhöhe 5 Minuten nach dem Mischen; for h1 / h0: Lösung mit 0,5 % WAS; for h0: Schaumhöhe eine Minute nach dem Mischen; for Stabilität: Schaumstabilität (h1/h0)*100
Protocol: Die Schaumhöhe der Formulierungen wurde nach folgender Methode ermittelt: In einem 400 ml Becher wurden 100 g einer wässrigen Lösung mit 0,5 % WAS hergestellt. Für eine Minute wurde die Lösung bei […] runden […] wurde die […] Minute […]0) und 5 […]. Die Schaumstabilität in % ergibt sich dann über (h1/h0)*100.

[2] = Brookfield viscosity (25°C) of cleaning formulation 24 h after addition of terpene ether; assay type: physicochemical
Protocol: Im Rahmen der vorliegenden Erfindung wird die Brookfield-Viskosität einer wässrigen Zusammensetzung vorzugsweise mittels einem RTV Brookfield-Viskosimeter bei 25°C ermittelt, besonders bevorzugt mit einer Spindel # 3 oder # 4.
Die in Tabelle 1 angegebene Reinigungsformulierung wurde untersucht. Tabelle 1: Reinigungsformulierung (WAS 15 %)
Zu dieser Formulierung wurden NP 1 oder NP 27 gegeben. Die gemessenen Brookfield-Viskositätswerte nach 24 Stunden werden in Tabelle 2 und 3 zusammengefasst. Tabelle 2: Brookfield-Viskosität (25°C)
Zu dieser Formulierung wurden NP 1 oder NP 27 sowie danach Natriumchlorid gegeben. Die gemessenen Brookfield-Viskositätswerte nach 24 Stunden werden in den folgenden Tabellen zusammengefasst. Tabelle 13: Brookfield-Viskosität (25°C)

[3] = Reinigungsformulierung enthaltend Coco Glucosid, 1 %
[4] = Reinigungsformulierung enthaltend Coco Glucosid, 5 %
[5] = Reinigungsformulierung enthaltend Dinatriumlaurylsuccinat (wässrig), 0,5 %
[6] = Reinigungsformulierung enthaltend Dinatriumlaurylsuccinat (wässrig), 1 %
[7] = Reinigungsformulierung enthaltend Dinatriumlaurylsuccinat (wässrig), 5 %
[8] = Reinigungsformulierung enthaltend Coco Glucosid, +0,5 %
[9] = Reinigungsformulierung enthaltend Coco Glucosid, +1 %
[10] = Reinigungsformulierung enthaltend Coco Glucosid, +5 %
[11] = Reinigungsformulierung enthaltend Dinatriumlaurylsuccinat (wässrig), +0,5 %, nach 24 Stunden
[12] = Reinigungsformulierung enthaltend Dinatriumlaurylsuccinat (wässrig), +1 %, nach 24 Stunden
[13] = Reinigungsformulierung enthaltend Dinatriumlaurylsuccinat (wässrig), +5 %, nach 24 Stunden
[14] = Reinigungsformulierung enthaltend Natriumlaurylethersulfat, Dinatriumcocoamphodiacetat, 0,5 % NaCl, +0,5 %, nach 24 Stunden
[15] = Reinigungsformulierung enthaltend Natriumlaurylethersulfat, Dinatriumcocoamphodiacetat, 0,5 % NaCl, +0,25 %, nach 24 Stunden
[16] = Reinigungsformulierung enthaltend Natriumlaurylethersulfat, Dinatriumcocoamphodiacetat, 0,5 % NaCl, +1 %, nach 24 Stunden
[17] = Reinigungsformulierung enthaltend Natriumlaurylethersulfat, Dinatriumcocoamphodiacetat, 0,5 % NaCl, +2 %, nach 24 Stunden
[18] = Reinigungsformulierung enthaltend Natriumlaurylethersulfat, Dinatriumcocoamphodiacetat, 1 % NaCl, +0,5 %, nach 24 Stunden
[19] = Reinigungsformulierung enthaltend Natriumlaurylethersulfat, Dinatriumcocoamphodiacetat, 1 % NaCl, +0,25 %, nach 24 Stunden
[20] = Reinigungsformulierung enthaltend Natriumlaurylethersulfat, Dinatriumcocoamphodiacetat, 1 % NaCl, +1 %, nach 24 Stunden
[21] = Reinigungsformulierung enthaltend Natriumlaurylethersulfat, Dinatriumcocoamphodiacetat, 1 % NaCl, +2 %, nach 24 Stunden
[22] = Reinigungsformulierung enthaltend Natriumlaurylethersulfat, Dinatriumcocoamphodiacetat, +0,5 %, nach 24 Stunden
[23] = Reinigungsformulierung enthaltend Natriumlaurylethersulfat, Dinatriumcocoamphodiacetat, +0,25 %, nach 24 Stunden
[24] = Reinigungsformulierung enthaltend Natriumlaurylethersulfat, Dinatriumcocoamphodiacetat, +1 %, nach 24 Stunden
[25] = Reinigungsformulierung enthaltend Natriumlaurylethersulfat, Dinatriumcocoamphodiacetat, +2 %, nach 24 Stunden

Compound: CC1(C)C2CCC1(C)C(OCC(O)CO)C2 (stereo not drawn) [NP 1, Glycerin-isobornylether]
- h1 [1, 3]: 210 mm
- h0 [1, 3]: 235 mm
- Stabilität [1, 3]: 89%
- h1 [1, 4]: 230 mm
- h0 [1, 4]: 260 mm
- Stabilität [1, 4]: 88%
- h1 [1, 5]: 220 mm
- h0 [1, 5]: 245 mm
- Stabilität [1, 5]: 90%
- h1 [1, 6]: 225 mm
- h0 [1, 6]: 250 mm
- Stabilität [1, 6]: 90%
- h1 [1, 7]: 225 mm
- h0 [1, 7]: 250 mm
- Stabilität [1, 7]: 90%
- BF-Viskosität (2,5 rpm) [2, 8]: 18200 mPas
- BF-Viskosität (5 rpm) [2, 8]: 17800 mPas
- BF-Viskosität (2,5 rpm) [2, 9]: 3400 mPas
- BF-Viskosität (5 rpm) [2, 9]: 3300 mPas
- BF-Viskosität (2,5 rpm) [2, 10]: 1600 mPas
- BF-Viskosität (5 rpm) [2, 10]: 1100 mPas
- BF-Viskosität (2,5 rpm) [2, 11]: 6200 mPas
- BF-Viskosität (5 rpm) [2, 11]: 6100 mPas
- BF-Viskosität (2,5 rpm) [2, 12]: 17600 mPas
- BF-Viskosität (5 rpm) [2, 12]: 17200 mPas
- BF-Viskosität (2,5 rpm) [2, 13]: 3800 mPas
- BF-Viskosität (5 rpm) [2, 13]: 1800 mPas
- BF-Viskosität (2,5 rpm) [2, 14]: 22800 mPas
- BF-Viskosität (5 rpm) [2, 14]: 21000 mPas
- BF-Viskosität (2,5 rpm) [2, 15]: 17200 mPas
- BF-Viskosität (5 rpm) [2, 15]: 16100 mPas
- BF-Viskosität (2,5 rpm) [2, 16]: 32000 mPas
- BF-Viskosität (5 rpm) [2, 16]: 29600 mPas
- BF-Viskosität (2,5 rpm) [2, 17]: 12800 mPas
- BF-Viskosität (5 rpm) [2, 17]: 12600 mPas
- BF-Viskosität (2,5 rpm) [2, 18]: 37600 mPas
- BF-Viskosität (5 rpm) [2, 18]: 33200 mPas
- BF-Viskosität (2,5 rpm) [2, 19]: 31200 mPas
- BF-Viskosität (5 rpm) [2, 19]: 27600 mPas
- BF-Viskosität (2,5 rpm) [2, 20]: 38400 mPas
- BF-Viskosität (5 rpm) [2, 20]: 36000 mPas
- BF-Viskosität (2,5 rpm) [2, 21]: 4400 mPas
- BF-Viskosität (5 rpm) [2, 21]: 4200 mPas
- BF-Viskosität (2,5 rpm) [2, 22]: 10400 mPas
- BF-Viskosität (5 rpm) [2, 22]: 10200 mPas
- BF-Viskosität (2,5 rpm) [2, 23]: 7200 mPas
- BF-Viskosität (5 rpm) [2, 23]: 7200 mPas
- BF-Viskosität (2,5 rpm) [2, 24]: 22800 mPas
- BF-Viskosität (5 rpm) [2, 24]: 22000 mPas
- BF-Viskosität (2,5 rpm) [2, 25]: 18400 mPas
- BF-Viskosität (5 rpm) [2, 25]: 18200 mPas
